This note sets out measurements from patent US8119681B2, “2-[1-phenyl-5-hydroxy or methoxy-4alpha-methyl-hexahydrocyclopenta [ƒ]indazole-5-YL]ethyl phenyl derivatives as glucocorticoid receptor ligands” (Merck Sharp & Dohme Corp., priority 2006, dated 2012).

Like-named read-outs stand apart in the source and are kept apart here.

The target of the experiment is T1, human GR (Homo sapiens, UniProt P04150).
T1 sequence (P04150 1-777): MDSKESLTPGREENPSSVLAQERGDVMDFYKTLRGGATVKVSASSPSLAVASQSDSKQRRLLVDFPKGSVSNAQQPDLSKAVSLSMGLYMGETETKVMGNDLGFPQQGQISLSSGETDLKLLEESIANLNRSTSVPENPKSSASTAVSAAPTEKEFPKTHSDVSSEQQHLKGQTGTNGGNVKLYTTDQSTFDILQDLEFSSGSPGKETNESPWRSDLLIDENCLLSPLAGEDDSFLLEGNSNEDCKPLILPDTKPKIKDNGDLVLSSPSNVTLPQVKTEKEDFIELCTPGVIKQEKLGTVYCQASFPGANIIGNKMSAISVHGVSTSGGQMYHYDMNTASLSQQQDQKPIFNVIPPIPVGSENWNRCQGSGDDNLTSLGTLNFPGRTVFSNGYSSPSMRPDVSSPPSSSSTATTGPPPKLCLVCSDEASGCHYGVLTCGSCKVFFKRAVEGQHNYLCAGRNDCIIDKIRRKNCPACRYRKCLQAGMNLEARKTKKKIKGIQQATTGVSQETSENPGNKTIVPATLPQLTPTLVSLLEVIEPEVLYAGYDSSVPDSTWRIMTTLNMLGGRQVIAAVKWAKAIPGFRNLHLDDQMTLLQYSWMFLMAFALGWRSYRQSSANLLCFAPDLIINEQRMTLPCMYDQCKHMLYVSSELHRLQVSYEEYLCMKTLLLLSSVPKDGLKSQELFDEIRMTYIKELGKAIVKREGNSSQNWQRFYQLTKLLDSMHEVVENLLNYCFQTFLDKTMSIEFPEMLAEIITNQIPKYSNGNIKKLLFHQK
In words: Trans-Activation Modulation of Glucocorticoid Receptor (GRAMMER), MMTV-LUC reporter gene. Format: cell-based. More on the design: endogenous in cells. Conditions: for Emax: A549; for EC50: A549 cells, IP = inflection point. The text has this:
Trans-Activation Modulation of Glucocorticoid Receptor (GRAMMER)
This assay assesses the ability of test compounds to control transcription from the MMTV-LUC reporter gene in lung adenocarcinoma A549 cells or HeLa cells, a human […] cell line that naturally expresses the human GR. The assay measures induction of a modified MMTV LTR/promoter linked to the LUC reporter gene.
The routine transient assay consists of plating 7,000-25,000 cells/well of a white, clear-bottom 96-well plate. Alternatively, 384-well plates can be used at a cell concentration of 10,000/well. The media that the cells are plated in is “exponential growth medium” which consists of phenol red-free RPMI1640 containing 10% FBS, 4 mM L-glutamine, 20 mM HEPES, 10 ug/mL human insulin, and 20 ug/mL gentamicin. Incubator conditions are 37° C. and 5% CO2. The transfection is done in batch mode. The cells are trypsinized and counted to the right cell number in the proper amount of fresh media. It is then gently mixed with the FuGene6/DNA mix and plated onto the 96 or 384-well plate, all the wells receive 100 uL or 40 uL, respectively, of medium+lipid/DNA complex then incubated 37° C. overnight. The transfection cocktail consists of serum-free OptiMEM, FuGene6 reagent and DNA. The manufacturer's (Roche Biochemical) protocol for cocktail setup is as follows: The lipid to DNA ratio is approximately 2.5:1 and the incubation time is 20 min at room temperature. Sixteen to 24 hours after transfection, the cells are treated with dexamethasone to a final concentration of 10 nM as well as the compound of interest, such that final DMSO (vehicle) concentration is equal to or less than 1%. Each plate also contains samples that are treated with 10 nM dexamethasone alone, which is used as the 100% activity control. The cells are exposed to the compounds for 24 hours. After 24 hours, the cells are lysed by a Promega cell culture lysis buffer for approximately 30 min and then the luciferase activity in the extracts is assayed in the 96-well format luminometer. In 384-well format, Steady-Glo (Promega) or Steady-Lite (PerkinElmer) can be used by adding an equal volume of reagent to the media present in each well. Activity induced by 10 nM dexamethasone alone is set at 100% activity. Antagonist activity is calculated by determining the decrease in dexamethasone-induced activity in response to compound treatment relative to samples that were treated with dexamethasone alone. […] This transactivation assay can be performed in an agonist and antagonist mode to identify these different activities. […]
A general note: In a reporter assay the amount or activity of a reporter protein is the signal.

[1] abbreviates: read-out: Transactivation A549 Cells GRAMMER Emax (%).
[2] abbreviates: Table 1, read-out: Transactivation A549 Cells GRAMMER IP.
The mark [3] stands for this setting: read-out: Transactiviation A549 Cells GRAMMER Emax (%).
The mark [4] stands for this setting: Table 2, read-out: Transactiviation A549 Cells GRAMMER IP.

By Emax is commonly meant the greatest response seen or fitted, relative to the assay's reference. Regarding `CC(C)(C)CNC(=O)c1c(F)cccc1CC[C@]1(O)CCC2=Cc3c(cnn3-c3ccc(F)cc3)C[C@@]21C` [Example 55, N-(2,2-dimethylpropyl)-2-fluoro-6-{2-[(4αS,5R)-1-(4-fluorophenyl)-5-hydroxy-4α-methyl-1,4,4α,5,6,7-hexahydrocyclopenta[f]indazol-5-yl]ethyl}benzamide], under setting [1], the maximal response (Emax) was 23%. Further, under setting [2], the EC50 amounted to 173 nM.

Consider `C=CCNC(=O)c1c(F)cccc1CC[C@]1(O)CCC2=Cc3c(cnn3-c3ccc(F)cc3)C[C@@]21C` [Example 57, N-allyl-2-fluoro-6-{2-[(4αS,5R)-1-(4-fluorophenyl)-5-hydroxy-4α-methyl-1,4,4α,5,6,7-hexahydrocyclopenta[f]indazol-5-yl]ethyl}benzamide], for which the Emax under setting [1] came out at 37%. Further, the EC50 under setting [2] stood at 24 nM.

Consider `COc1ccccc1CC[C@]1(O)CCC2=Cc3c(cnn3-c3ccc(F)cc3)C[C@@]21C` [Example 58 WO 2004/075840 A2, reference compound], for which the Emax under setting [3] amounted to 28%. For the same compound, under setting [4], the EC50 amounted to 397 nM.

As for `CC(C)(C)NC(=O)c1c(F)cccc1CC[C@]1(O)CCC2=Cc3c(cnn3-c3ccc(F)cc3)C[C@@]21C` [Example 59, N-(tert-butyl)-2-fluoro-6-{2-[(4αS,5R)-1-(4-fluorophenyl)-5-hydroxy-4α-methyl-1,4,4α,5,6,7-hexahydrocyclopenta[f]indazol-5-yl]ethyl}benzamide], under setting [1], the Emax was found to be 40%. Under setting [2], the EC50 amounted to 108 nM.

As for `CC(C)CNC(=O)c1c(F)cccc1CC[C@]1(O)CCC2=Cc3c(cnn3-c3ccc(F)cc3)C[C@@]21C` [Example 61, 2-fluoro-6-{2-[(4αS,5R)-1-(4-fluorophenyl)-5-hydroxy-4α-methyl-1,4,4α,5,6,7-hexahydrocyclopenta[f]indazol-5-yl]ethyl}-N-isobutylbenzamide], the Emax under setting [1] is 35%. Besides, the EC50 under setting [2] was 86 nM.

On to `CC(C)(C)NC(=O)c1ccccc1CC[C@]1(O)CCC2=Cc3c(cnn3-c3ccc(F)cc3)C[C@@]21C` [Example 62, N-(tert-butyl)-2-{2-[(4αS,5R)-1-(4-fluorophenyl)-5-hydroxy-4α-methyl-1,4,4α,5,6,7-hexahydrocyclopenta[f]indazol-5-yl]ethyl}benzamide], for which the Emax under setting [1] stood at 23%. Besides, the EC50 under setting [2] came out at 212 nM.

In the case of `C[C@]12Cc3cnn(-c4ccc(F)cc4)c3C=C1CC[C@@]2(O)CCc1ccccc1F` [Example 70 WO 2004/075840 A2, reference compound], the Emax under setting [3] is 144%. The EC50 under setting [4] worked out at 215 nM.

Take `CC(C)S(=O)(=O)NCc1c(F)cccc1CC[C@]1(O)CCC2=Cc3c(cnn3-c3ccc(F)cc3)C[C@@]21C` [Example 83, N-(2-fluoro-6-{2-[(4αS,5R)-1-(4-fluorophenyl)-5-hydroxy-4α-methyl-1,4,4α,5,6,7-hexahydrocyclopenta[f]indazol-5-yl]ethyl}benzyl)propane-2-sulfonamide]: the Emax under setting [1] amounted to 21%. Also, the EC50 under setting [2] was 70 nM.

Take `CCS(=O)(=O)NCc1c(F)cccc1CC[C@]1(O)CCC2=Cc3c(cnn3-c3ccc(F)cc3)C[C@@]21C` [Example 84, N-(2-fluoro-6-{2-[(4αS,5R)-1-(4-fluorophenyl)-5-hydroxy-4α-methyl-1,4,4α,5,6,7-hexahydrocyclopenta[f]indazol-5-yl]ethyl}benzyl)ethanesulfonamide]: the maximum response (Emax) under setting [1] worked out at 23%. Moreover, the EC50 under setting [2] turned out to be 50 nM.

Take `C[C@]12Cc3cnn(-c4ccc(F)cc4)c3C=C1CC[C@@]2(O)CCc1cccc(F)c1CNS(=O)(=O)C(Cl)Cl` [Example 85, 1,1-dichloro-N-(2-fluoro-6-{2-[(4αS,5R)-1-(4-fluorophenyl)-5-hydroxy-4α-methyl-1,4,4α,5,6,7-hexahydrocyclopenta[f]indazol-5-yl]ethyl}benzyl)methanesulfonamide]: the Emax under setting [1] turned out to be 19%. In addition, the EC50 under setting [2] amounted to 94 nM.

Turning to `C[C@]12Cc3cnn(-c4ccc(F)cc4)c3C=C1CC[C@@]2(O)CCc1cccc(F)c1CNS(=O)(=O)CC(F)(F)F` [Example 86, 2,2,2-trifluoro-N-(2-fluoro-6-{2-[(4αS,5R)-1-(4-fluorophenyl)-5-hydroxy-4α-methyl-1,4,4α,5,6,7-hexahydrocyclopenta[f]indazol-5-yl]ethyl}benzyl)ethanesulfonamide], under setting [1], the Emax came out at 13%. Under setting [2], the EC50 turned out to be 211 nM.

In the case of `C[C@]12Cc3cnn(-c4ccc(F)cc4)c3C=C1CC[C@@]2(O)CCc1cccc(F)c1CNS(=O)(=O)C1CC1` [Example 88, N-(2-fluoro-6-{2-[(4αS,5R)-1-(4-fluorophenyl)-5-hydroxy-4α-methyl-1,4,4α,5,6,7-hexahydrocyclopenta[f]indazol-5-yl]ethyl}benzyl)cyclopropanesulfonamide], the Emax under setting [1] was 32%. Also, the EC50 under setting [2] came to 53 nM.

With `CN(C)S(=O)(=O)NCc1c(F)cccc1CC[C@]1(O)CCC2=Cc3c(cnn3-c3ccc(F)cc3)C[C@@]21C` [Example 89, N′-(2-fluoro-6-{2-[(4αS,5R)-1-(4-fluorophenyl)-5-hydroxy-4α-methyl-1,4,4α,5,6,7-hexahydrocyclopenta[f]indazol-5-yl]ethyl}benzyl)-N,N-dimethylsulfamide], the Emax under setting [1] came out at 20%. Under setting [2], the EC50 was 43 nM.

As for `C[C@]12Cc3cnn(-c4ccc(F)cc4)c3C=C1CC[C@@]2(O)CCc1ccccc1C1(NS(=O)(=O)C2CC2)CC1` [Example 91, N-[1-(2-{2-[(4αS,5R)-1-(4-fluorophenyl)-5-hydroxy-4α-methyl-1,4,4α,5,6,7-hexahydrocyclopenta[f]indazol-5-yl]ethyl}phenyl)cyclopropyl]cyclopropanesulfonamide], the Emax under setting [1] is 46%. The EC50 under setting [2] is 121 nM.

In the case of `C[C@]12Cc3cnn(-c4ccc(F)cc4)c3C=C1CC[C@@]2(O)CCc1ccccc1CC(N)=O` [Example 107, 2-(2-{2-[(4αS,5R)-1-(4-fluorophenyl)-5-hydroxy-4α-methyl-1,4,4α,5,6,7-hexahydrocyclopenta[f]indazol-5-yl]ethyl}phenyl)acetamide], the Emax under setting [1] was determined as 37%. For the same compound, under setting [2], the EC50 amounted to 261 nM.

As to `CN(C)S(=O)(=O)Nc1c(F)cccc1CC[C@]1(O)CCC2=Cc3c(cnn3-c3ccc(F)cc3)C[C@@]21C` [Example 113, N′-(2-fluoro-6-{2-[(4αS,5R)-1-(4-fluorophenyl)-5-hydroxy-4α-methyl-1,4,4α,5,6,7-hexahydrocyclopenta[f]indazol-5-yl]ethyl}phenyl)-N,N-dimethylsulfamide], the Emax under setting [1] is 32%. Besides, the EC50 under setting [2] was 205 nM.

As for `CCS(=O)(=O)Nc1ccccc1CC[C@]1(O)CCC2=Cc3c(cnn3-c3ccc(F)cc3)C[C@@]21C` [Example 114, N-(2-{2-[(4αS,5R)-1-(4-fluorophenyl)-5-hydroxy-4α-methyl-1,4,4α,5,6,7-hexahydrocyclopenta[f]indazol-5-yl]ethyl}phenyl)ethanesulfonamide], the Emax under setting [1] came out at 43%. In addition, the EC50 under setting [2] was 221 nM.
